# Source: publication PMC9818267, “Brain Natriuretic Peptide Protects Cardiomyocytes from Apoptosis and Stimulates Their Cell Cycle Re-Entry in Mouse Infarcted Hearts” (Cells, 2022)
# No end group written: not given here.
# Experiments:
# ERK = test: Western blot pERK/ERK in adult CMs stimulated in vitro; format: cell-based, mouse; conditions: adult CMs stimulated with BNP for 2–3 h in vitro, vs untreated
# Description: (§1) CM isolations were performed thanks to the Langendorff-Free method. […] Thereafter, the heart was removed from the chest and the left ventricle was perfused with enzymatic solution containing collagenase II (120 U/mL), collagenase IV (120 U/mL) (Worthington, Biochemical Corporation, USA) and protease XIV (0.05 mg/mL or 0.175 U/mL) (Sigma-Aldrich, Merck, Darmstadt, Germany). In each experiment, a full digestion of the heart was obtained. After digestion, cardiac cells were dissociated by gentle pipetting, filtered and collected after 25 min sedimentation. For infarcted hearts, the tissue was separated into the three zones (ZI, BZ and RZ). The three different areas were weighted before gentle pipetting.
# (§2) Total proteins were extracted from CMs isolated from adult infarcted and unmanipulated neonatal and adult hearts. Proteins were transferred to nitrocellulose membranes (Biorad) before incubation with primary antibodies overnight at 4 °C. Secondary antibodies were added 1 h at RT in the dark (Supplementary File S1). The signal was detected and quantified with the Odyssey infrared imaging system (LI-COR. Biosciences, Bad Homburg, Germany). All results were normalized to the tubulin protein level or to the total protein level thanks to stainings with the Revert 700 Total protein Stain (LI-COR).
# [1] = Infarct size by echocardiography; format: in vivo, mouse; conditions: two weeks after surgery
# From the text: To assess for the reproducibility of LAD occlusion, we measured the infarct size by echocardiography analysis (% of the MI length long axis). Two weeks after surgery, the infarct area represented 37 ± 2.5% of the LV in saline injected mice (n = 10) and 31.5 ± 4% in BNP-treated mice (n = 7).
# adult CMs = test: Adult CM culture 7 days with BNP; format: cell-based, mouse; conditions: 10 nM BNP, 7 days of culture
# Description: as §1
# (§3) qRT-PCR were performed using the SYBR Premix Ex Taq polymerase (Takara Bio Inc., Shiga, Japan) with the ViiA^TM7 Instrument (Applied Biosystems, Waltham, MA, USA). Total RNA was isolated from heart tissue, CM cell cultures and isolated CMs using TRI-Reagent (Zymo Research, Orange County, CA, USA). cDNA was synthesized from RNA using PrimeScript RT reagent kit (Takara Bio Inc.). Polymerase chain reactions (PCR) were performed using the SYBR Premix Ex Taq polymerase (Takara Bio Inc.) with the ViiA^TM7 Instrument (Applied Biosystems). Results were obtained after 40 cycles of a thermal step protocol consisting of an initial denaturation of 95 °C (1 s), followed by 60 °C (20 s) of elongation (α-skeletal actin has an elongation time of 30 s at 60 °C). The sequences of primers were reported in Supplementary File S2. All results were normalized with the 18S housekeeping gene (Δ CT values). Means of ΔΔ CT (Δ CTBNP–Δ CTsaline) values (versus untreated cells or NaCl treated mice) were calculated and results were represented as 2^−ΔΔCT. Statistics were performed on ΔΔ CT individual values. SEM fold increase was calculated using 2^−ΔΔ CT high values − 2^−means of ΔΔCT [13].
# p38 = test: Western blot pp38/p38 in adult CMs stimulated in vitro; format: cell-based, mouse; conditions: adult CMs stimulated with BNP for 2–3 h in vitro, vs untreated
# Description: as §1, §2
# [2] = Survival of infarcted mice at 14 days; format: in vivo, mouse; conditions: 14 days after MI; BNP ip every 2 days; saline group 83.9%
# Description: To generate a permanent infarction, a ligation of the left anterior descending coronary artery (LAD) was performed in 6–8-week-old C57BL/6- or 8-week-old Myh6 MerCreMer mice, already injected with Tamoxifen 2 weeks before. Mice were anesthetized with ketamine/xylazine and acepromazine (65 mg/kg, 15 mg/kg, 2 mg/kg, respectively). Mice were intubated and ventilated during all the entire period of surgery. At the third intercostal space, the chest cavity was opened and at the left upper sterna border, the LAD coronary artery was ligated with a 7–0 nylon suture at about 1–2 mm from the atria. After surgery, Temgesic (Buprenorphine, 0.1 mg/kg) was injected subcutaneously as soon as the mice woken up and every 8–12 h for 2 days. Adult mice were sacrificed by lethal injection of pentobarbital (150 mg/kg intraperitoneally) 2 weeks after the surgery. The breathing arrest was controlled and cervical dislocation was performed.
# BNP was injected into infarcted adults, and unmanipulated neonatal and adult mice. Directly after surgery, NaCl (saline) or BNP (1.3 µg/20 g in 20 µL) was injected into the left ventricle cavity. At 24 h after MI, mice were intraperitoneal (ip) injected with BNP (2 µg/20 g mice) or saline every 2 days. C57BL/6 mice were sacrificed 1- and 14 days post-MI and Myh6 MerCreMer mice were sacrificed 14 days post-MI (Figure 1A). […]
# [3] = rats with myocardial damage; cited from earlier work
# cardiomyocytes (CMs) = test: qRT-PCR on CMs isolated from treated hearts; format: in vivo, mouse
# Description: (§4) BNP was injected into infarcted adults, and unmanipulated neonatal and adult mice. Directly after surgery, NaCl (saline) or BNP (1.3 µg/20 g in 20 µL) was injected into the left ventricle cavity. At 24 h after MI, mice were intraperitoneal (ip) injected with BNP (2 µg/20 g mice) or saline every 2 days. C57BL/6 mice were sacrificed 1- and 14 days post-MI and Myh6 MerCreMer mice were sacrificed 14 days post-MI (Figure 1A). Neonatal C57BL/6 mice (3 days after birth) were injected ip with NaCl or BNP every two days (1 µg/2 g; Bachem; synthetic mouse BNP (1–45) peptide (catalog number H-7558)). Mice were sacrificed 11 days after birth (Figure 1B). Eight week old C57 BL/6 mice or Myh6 MerCreMer unmanipulated mice were injected ip with BNP (2 µg/20 g mice) or NaCl every two days (Figure 1C). Two weeks after the first injection, mice were sacrificed. To assess for the implication of the ERK signaling pathway in the BNP effect on CMs, PD0325901 (60 µg/20 g mice in 80 µL) was administered by gavage in adult unmanipulated mice 1 h before BNP injection (2 µg/20 g mice).
# as §1, §3
# [4] = cited from earlier work
# Troponin T = Troponin T plasma concentration (ECLIA) after MI; format: in vivo, mouse; conditions: BNP vs saline
# Description: Troponin T plasma levels were quantified using an electrochemiluminescence immunoassay analyzer “ECLIA” (cobas e 801 immunoanalysis system, Roche Diagnostics, Rotkreuz, Switzerland) in the hematology laboratory of the Centre Hospitalier Universitaire Vaudois (CHUV). Blood was collected 24 h and 3 days after infarction induction in heparin microvette (Sarstedt, Nümbrecht, Germany).
# phospholamban (PLB) = test: Western blot pPLB/PLB in CMs isolated from BNP-injected hearts; format: in vivo, mouse; conditions: vs saline
# Description: as §4, §1, §2
# [5] = CMs from border area of infarcted hearts, BNP vs saline
# [6] = CMs from unmanipulated adult hearts, BNP vs saline
substance,measurement,setting,value
"Brain Natriuretic Peptide (SQGSTLRVQQRPQNSKVTHISSCFGHKIDRIGSVSRLGCNALKLL; not fully specified; ends and bridges not checked; UniProt P40753 77-121, looked up) [BNP, synthetic mouse BNP (1–45) peptide (Bachem, catalog number H-7558)]",pERK/ERK ratio increase,ERK,1.9 ×
same,reduction of infarct size,[1]; BNP vs saline,15%
same,infarct area as % of the LV (% of the MI length long axis),"[1]; BNP-treated n = 7, saline 37 ± 2.5% (n = 10)",31.5 ± 4%
same,Aurkb+ Troponin I+ CMs in culture,adult CMs,detected only in BNP-treated cell cultures
same,anf mRNA increase,adult CMs; vs untreated,70%
same,cyclin E1 mRNA increase,adult CMs; vs untreated,56%
same,dab2 mRNA increase,adult CMs; vs untreated,52%
same,runx1 mRNA increase,adult CMs; vs untreated,62%
same,pp38/p38 ratio,p38,did not change
same,survival of infarcted mice,[2],84.2%
same,half-life,[3],about 1.2 min
same,hearts with increased cyclin A2 and B2 mRNA in isolated CMs,"cardiomyocytes (CMs); CMs from BZ of BNP-treated infarcted hearts, vs saline",4 out of 8
same,"mRNA expression of myh7, acta1, hif1α",cardiomyocytes (CMs); CMs from RZ of BNP-treated infarcted hearts (data not shown),No difference
same,acta1 mRNA level increase,cardiomyocytes (CMs); [5],2 ×
same,hif1α mRNA level increase,cardiomyocytes (CMs); [5],1.4 ×
same,hif1α mRNA level increase,"cardiomyocytes (CMs); CMs from neonatal BNP-treated hearts, vs saline",1.5 ×
same,acta1 mRNA level increase,cardiomyocytes (CMs); [6],1.4 ×
same,hif1α mRNA level increase,cardiomyocytes (CMs); [6],1.8 ×
same,myh7 mRNA level increase,cardiomyocytes (CMs); [6],1.9 ×
same,"mRNAs coding for cyclins E1, A2 or B2","cardiomyocytes (CMs); CMs isolated from all neonatal BNP-treated hearts, vs saline",increased levels
same,CM isolations with increased cyclin A2 or B2 mRNA,"cardiomyocytes (CMs); unmanipulated adult BNP-treated hearts, vs saline",5 out of 7
same,half-life in the circulation,[4]; healthy persons,about 18 min
same,half-life in the plasma,[4]; patients with congestive heart failure,~12 min
same,Troponin T plasma concentration decrease,Troponin T; 1 day after MI,2.6 ×
same,Troponin T plasma concentration decrease,Troponin T; 3 days after MI,2.1 ×
same,pPLB/PLB ratio change,phospholamban (PLB); CMs from remote zone (RZ) of infarcted hearts after BNP injections,−32%
same,pPLB/PLB ratio increase,phospholamban (PLB); CMs from unmanipulated adult hearts after BNP injections (2–3 h before CM isolation),1.5 ×
same,pPLB/PLB ratio increase,phospholamban (PLB); CMs from unmanipulated neonatal hearts after BNP injections,3.5 ×
same,pPLB/PLB ratio increase,phospholamban (PLB); CMs isolated from border zone (BZ) of infarcted hearts after BNP injections,2.7 ×
